Like-named read-outs stand apart in the source and are kept apart here.
Tests used:
HIV-1 (strain IIIB) = experiment: Antiviral activity assay in MT4 cells (propidium iodide based); type: cell-based
Method in brief: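 MT4 cells infected with HIV-1 IIIB (MOI 100×TCID50, 1 hr, 37°C), diluted 6-fold into wells with serially diluted compound, incubated 5 days. Cells lysed with Nonidet-40; DNA content per well estimated by propidium iodide staining as the viability read-out, with mock-infected controls.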

[1] = system: D545701-14 multi protease inhibitor resistant virus; experiment: Anti-viral activity against resistant virus D545701-14 in MT4 cells; type: cell-based, HIV-1
Protocol: (§1) Exponentially growing MT4 cells were harvested and centrifuged at 1000 rpm for 10 min in a Jouan centrifuge (model CR 4 12). […] Cell aliquots were infected by the addition of HIV-1 (strain IIIB) diluted to give a viral multiplicity of infection of 100×TCID50. […] Cell infection was allowed to proceed for 1 hr at 37° in a tissue culture incubator with humidified 5% CO2 atmosphere. After the 1 hr incubation the virus/cell suspensions were diluted 6-fold with fresh medium, and 125 μl of the cell suspension was added to each well of the plate containing pre-diluted compound. Plates were then placed in a tissue culture incubator with humidified 5% CO2 for 5 days. At the end of the incubation period, 27 μl of 5% Nonidet-40 was added to each well of the incubation plate. After thorough mixing with a Costar multitip pipetter, 60 μl of the mixture was transferred to filter-bottomed 96-well plates. The plates were analyzed in an automated assay instrument (Screen Machine, Idexx Laboratories). The assay makes use of a propidium iodide dye to estimate the DNA content of each well.
(§2) Anti-Viral Activity Against Resistant Viruses
EP13 and DS45701, two multi protease inhibitor resistant viruses were used to assess potency against mutant viruses. These viruses contain the following mutations relative to the consensus sequence of wild type virus: […]

[2] = system: EP13 multi protease inhibitor resistant virus; experiment: Anti-viral activity against resistant virus EP13 in MT4 cells; type: cell-based, HIV-1
Protocol: as §1, §2
EP13 and DS45701, two multi protease inhibitor resistant viruses were used to assess potency against mutant viruses. These viruses contain the following mutations relative to the consensus sequence of wild type virus:
EP13: Protease amino acid sequence: M46I, L63P, A71V, V82F/L, I84V; No reverse transcriptase mutations.

[3] = Human immunodeficiency virus 1, IIIB, wild type HIV-1 virus, MT4 cells, read-out: Wildtype virus - IC50
[4] = Human immunodeficiency virus 1, MT4, read-out: D545701-14 mutant - IC50, D545701-14 multi protease inhibitor resistant virus, MT4 cells
[5] = Human immunodeficiency virus 1, MT4, read-out: EP13 mutant IC50, EP13 multi protease inhibitor resistant virus, MT4 cells
[6] = Human immunodeficiency virus 1, MT4, read-out: Reference data for protease inhibitors (D545701-14), D545701-14 mutant virus
[7] = Human immunodeficiency virus 1, MT4, read-out: Reference data for protease inhibitors (EP13), EP13 mutant virus
[8] = Human immunodeficiency virus 1, MT4, 120 h, MT-4 cells, HIV-1 strain IIIB, 5 days, read-out: IC50 (Antiviral Activity of Compounds of the Invention)
[9] = read-out: D545701-14 mutant - IC50, D545701-14 multi protease inhibitor resistant virus, MT4 cells
[10] = wild type HIV-1 virus, MT4 cells, read-out: Wildtype virus - IC50
[11] = D545701-14 multi protease inhibitor resistant virus, MT4 cells, read-out: D545701-14 mutant - IC50
[12] = EP13 multi protease inhibitor resistant virus, MT4 cells, read-out: EP13 mutant IC50

CC(C)CN(C[C@@H](O)[C@H](Cc1ccc(OCCCNc2ncccn2)cc1)NC(=O)OC1CO[C@H]2OCC[C@@H]12)S(=O)(=O)c1ccc2c(c1)OCO2 (stereo in doubt) [Compound 271, (3R,3aS,6aR)-hexahydrofuro[2,3-b]furan-3-yl (1S,2R)-3-[(1,3-benzodioxol-5-ylsulfonyl)(isobutyl)amino]-2-hydroxy-1-{4-[3-(2-pyrimidinylamino)propoxy]benzyl}propylcarbamate]
IC50 (HIV-1 (strain IIIB); [3]): 1 to 10 nM
IC50 [1, 4]: 1 to 10 nM
IC50 [2, 5]: 1 to 10 nM

CC(C)CN(C[C@@H](O)[C@H](Cc1ccc(OCCCNc2cc[nH]n2)cc1)NC(=O)OC1CO[C@H]2OCC[C@@H]12)S(=O)(=O)c1ccc2c(c1)OCO2 (stereo in doubt) [Compound 281, (3R,3aS,6aR)-hexahydrofuro[2,3-b]furan-3-yl (1S,2R)-3-[(1,3-benzodioxol-5-ylsulfonyl)(isobutyl)amino]-2-hydroxy-1-{4-[3-(1H-pyrazol-3-ylamino)propoxy]benzyl}propylcarbamate]
IC50 (HIV-1 (strain IIIB); [3]): 1 to 10 nM
IC50 [1, 4]: 1 to 10 nM
IC50 [2, 5]: 1 to 10 nM

CNC(=O)CCCOc1ccc(C[C@H](NC(=O)OC2CO[C@H]3OCC[C@@H]23)[C@H](O)CN(CC(C)C)S(=O)(=O)c2ccc3c(c2)OCO3)cc1 (stereo in doubt) [Compound 286, (3R,3aS,6aR)-hexahydrofuro[2,3-b]furan-3-yl (1S,2R)-3-[(1,3-benzodioxol-5-ylsulfonyl)(isobutyl)amino]-2-hydroxy-1-{4-[4-(methylamino)-4-oxobutoxy]benzyl}propylcarbamate]
IC50 (HIV-1 (strain IIIB); [3]): 10 to 100 nM
IC50 [1, 4]: 1 to 10 nM
IC50 [2, 5]: 1 to 10 nM

CC(C)CN(C[C@@H](O)[C@H](Cc1ccc(OCCCC(=O)N(C)C)cc1)NC(=O)OC1CO[C@H]2OCC[C@@H]12)S(=O)(=O)c1ccc2c(c1)OCO2 (stereo in doubt) [Compound 287, (3R,3aS,6aR)-hexahydrofuro[2,3-b]furan-3-yl (1S,2R)-3-[(1,3-benzodioxol-5-ylsulfonyl)(isobutyl)amino]-1-{4-[4-(dimethylamino)-4-oxobutoxy]benzyl}-2-hydroxypropylcarbamate]
IC50 (HIV-1 (strain IIIB); [3]): 1 to 10 nM
IC50 [1, 4]: 1 to 10 nM
IC50 [2, 5]: 1 to 10 nM

CC(C)CN(CC(O)[C@H](Cc1ccc(OCc2ccccn2)cc1)NC(=O)O[C@H]1CO[C@H]2OCC[C@H]21)S(=O)(=O)c1ccc2c(c1)OCCO2 (stereo in doubt) [Compound 337, (3R,3aS,6aR)-hexahydrofuro[2,3-b]furan-3-yl (1S,2S)-3-[(2,3-dihydro-1,4-benzodioxin-6-ylsulfonyl)(isobutyl)amino]-2-hydroxy-1-[4-(2-pyridinylmethoxy)benzyl]propylcarbamate]
IC50 (HIV-1 (strain IIIB); [3]): 1 to 10 nM
IC50 [1, 4]: 1 to 10 nM
IC50 [2, 5]: 1 to 10 nM

CC(C)CN(C[C@@H](O)[C@H](Cc1ccccc1)NC(=O)O[C@H]1CCOC1)S(=O)(=O)c1ccc(N)cc1 [Amprenavir, reference compound]
IC50 [1, 6]: > 1000 nM
IC50 [2, 7]: 600 nM

CC(C)CN(C[C@@H](O)[C@H](Cc1ccc(OCc2cccnc2)cc1)NC(=O)O[C@H]1CO[C@H]2OCC[C@H]21)S(=O)(=O)c1ccc2c(c1)OCO2 [Compound 52, Bis-THF Methylenedioxybenzenesulfonamide 3-picolyl Tethered Product]
IC50 (HIV-1 (strain IIIB); [3]): 10 to 100 nM
IC50 (HIV-1 (strain IIIB); [8]): 1 to 10 nM
IC50 [1, 4]: 1 to 10 nM
IC50 [2, 5]: 1 to 10 nM

CC(C)CN(C[C@@H](O)[C@H](Cc1ccc(OCc2ccccn2)cc1)NC(=O)O[C@H]1CO[C@H]2OCC[C@H]21)S(=O)(=O)c1ccc2c(c1)OCO2 [Compound 53, Bis-THF Methylenedioxybenzenesulfonamide 2-picolyl Tethered Product]
IC50 (HIV-1 (strain IIIB); [3]): 1 to 10 nM
IC50 (HIV-1 (strain IIIB); [8]): 1 to 10 nM
IC50 [1, 4]: 1 to 10 nM
IC50 [2, 5]: 1 to 10 nM

CC(C)CN(C[C@@H](O)[C@H](Cc1ccc(OCc2ccncc2)cc1)NC(=O)O[C@H]1CO[C@H]2OCC[C@H]21)S(=O)(=O)c1ccc2c(c1)OCO2 [Compound 54, Bis-THF Methylenedioxybenzenesulfonamide 4-picolyl Tethered Product]
IC50 (HIV-1 (strain IIIB); [3]): 10 to 100 nM
IC50 (HIV-1 (strain IIIB); [8]): 1 to 10 nM
IC50 [1, 4]: 1 to 10 nM
IC50 [2, 5]: 1 to 10 nM

Cc1cc(COc2ccc(C[C@H](NC(=O)O[C@H]3CO[C@H]4OCC[C@H]43)[C@H](O)CN(CC(C)C)S(=O)(=O)c3ccc4c(c3)OCO4)cc2)no1 [Compound 55, Bis-THF Methylenedioxybenzenesulfonamide 3-methyl-5-methylisoxazole Tethered Product]
IC50 (HIV-1 (strain IIIB); [8]): < 1 nM
IC50 [1, 4]: 1 to 10 nM
IC50 [2, 5]: 1 to 10 nM

CC(C)CN(C[C@@H](O)[C@H](Cc1ccc(OCCc2ccccc2)cc1)NC(=O)O[C@H]1CO[C@H]2OCC[C@H]21)S(=O)(=O)c1ccc2c(c1)OCO2 [Compound 202, (3R,3aS,6aR)hexahydrofuro[2,3-b]furan-3-yl (1S,2R)-3-[(1,3-benzodioxol-5-ylsulfonyl)(isobutyl)amino]-2-hydroxy-1-[4-(phenethyloxy)benzyl]propylcarbamate]
IC50 (HIV-1 (strain IIIB); [3]): < 1 nM
IC50 [1, 4]: 1 to 10 nM
IC50 [2, 5]: < 1 nM

CC(C)CN(C[C@@H](O)[C@H](Cc1ccc(OCCCc2ccccc2)cc1)NC(=O)O[C@H]1CO[C@H]2OCC[C@H]21)S(=O)(=O)c1ccc2c(c1)OCO2 [Compound 203, (3R,3aS,6aR)hexahydrofuro[2,3-b]furan-3-yl (1S,2R)-3-[(1,3-benzodioxol-5-ylsulfonyl)(isobutyl)amino]-2-hydroxy-1-[4-([3-phenylpropyl]oxy)benzyl]propylcarbamate]
IC50 (HIV-1 (strain IIIB); [3]): < 1 nM
IC50 [1, 9]: 10 to 100 nM
IC50 [2, 5]: 1 to 10 nM

CC(C)CN(C[C@@H](O)[C@H](Cc1ccc(OCCCC(F)(F)F)cc1)NC(=O)O[C@H]1CO[C@H]2OCC[C@H]21)S(=O)(=O)c1ccc2c(c1)OCCO2 [Compound 204, (3R,3aS,6aR)-hexahydrofuro[2,3-b]furan-3-yl (1S,2R)-3-[(2,3-dihydro-1,4-benzodioxin-6-ylsulfonyl)(isobutyl)amino]-2-hydroxy-1-[4-(4,4,4-trifluorobutoxy)benzyl]propylcarbamate]
IC50 (HIV-1 (strain IIIB); [3]): 1 to 10 nM
IC50 [1, 4]: 1 to 10 nM
IC50 [2, 5]: 1 to 10 nM

CC(C)CN(C[C@@H](O)[C@H](Cc1ccc(OCCc2ccc(F)cc2)cc1)NC(=O)O[C@H]1CO[C@H]2OCC[C@H]21)S(=O)(=O)c1ccc2c(c1)OCO2 [Compound 205]
IC50 (HIV-1 (strain IIIB); [10]): 1 to 10 nM
IC50 [1, 11]: 10 to 100 nM
IC50 [2, 12]: 10 to 100 nM

COc1ccc(CCOc2ccc(C[C@H](NC(=O)O[C@H]3CO[C@H]4OCC[C@H]43)[C@H](O)CN(CC(C)C)S(=O)(=O)c3ccc4c(c3)OCO4)cc2)cc1 [Compound 206]
IC50 (HIV-1 (strain IIIB); [10]): 1 to 10 nM
IC50 [1, 11]: 10 to 100 nM
IC50 [2, 12]: 10 to 100 nM

CC(C)CN(C[C@@H](O)[C@H](Cc1ccc(OCCNC(=O)OC(C)(C)C)cc1)NC(=O)O[C@H]1CO[C@H]2OCC[C@H]21)S(=O)(=O)c1ccc2c(c1)OCO2 [Compound 219, (3R,3aS,6aR)-hexahydrofuro[2,3-b]furan-3-yl (1S,2R)-3-[(1,3-benzodioxol-5-ylsulfonyl)(isobutyl)amino]-1-(4-{2-[(tert-butoxycarbonyl)amino]ethoxy}benzyl)-2-hydroxypropylcarbamate]
IC50 (HIV-1 (strain IIIB); [3]): 1 to 10 nM
IC50 [1, 4]: 1 to 10 nM
IC50 [2, 5]: 1 to 10 nM

CC(C)CN(C[C@@H](O)[C@H](Cc1ccc(OCCCc2ccccc2)cc1)NC(=O)O[C@H]1CO[C@H]2OCC[C@H]21)S(=O)(=O)c1ccc2c(c1)OCO2 [Compound 353, (3R,3aS,6aR)hexahydrofuro[2,3-b]furan-3-yl (1S,2R)-3-[(1,3-benzodioxol-5-ylsulfonyl)(isobutyl)amino]-2-hydroxy-1-[4-([3-phenylpropyl]oxy)benzyl]propylcarbamate]
IC50 [1, 9]: 1 to 10 nM
IC50 ([2]; read-out: EP13 mutant IC50, EP13 multi protease inhibitor resistant virus, MT4 cells): < 1 nM

CC(C)(C)NC(=O)[C@@H]1CN(Cc2cccnc2)CCN1C[C@@H](O)C[C@@H](Cc1ccccc1)C(=O)N[C@H]1c2ccccc2C[C@H]1O [Indinavir, reference compound]
IC50 [1, 6]: 700 nM
IC50 [2, 7]: 560 nM

CC(C)c1nc(CN(C)C(=O)N[C@H](C(=O)N[C@@H](Cc2ccccc2)C[C@H](O)[C@H](Cc2ccccc2)NC(=O)OCc2cncs2)C(C)C)cs1 [Ritonavir, reference compound]
IC50 [1, 6]: > 10000 nM
IC50 [2, 7]: > 600 nM

Source: US8455497B2, “Inhibitors of aspartyl protease” (Vertex Pharmaceuticals Incorporated, priority 1999, dated 2013)
